# Tests used:
# [1] = test system: three fluorescently labelled DNA sequences shown in FIG. 17; assay: FRET DNA melting, the three DNA sequences shown in FIG. 17 together; format: binding; conditions: different concentrations, all three sequences, vs control DNA
# Excerpt: Further FRET DNA melting studies were undertaken on a number of molecules using three fluorescently labelled sequences. The sequences (FIG. 17) were designed to provide additional evidence that the series can form inter- and intrastrand cross-links. Inosines were inserted in place of traditional DNA bases in some cases to limit the number of binding sites available for the compounds to interact with. The short duplexes used in this FRET study are relatively unstable in the duplex form with a melting temperature below 30° C. so that, in the absence of ligand, a large part of the melting occurs below the starting temperature of the experiment. […] Increasing concentrations of 13 cause a greater amount of the melting transition to appear at the higher temperature (i.e. a greater number of the DNA molecules are cross-linked). A greater effect for 5′-AIIAGAITTTI′-3′ can be observed at lower concentrations of 13.
# Oligonucleotides were obtained from ATDbio (Southampton, UK) in lyophilised form. They were labelled with a fluorophore molecule (F=fluorescein) at the 5′-end and a quencher molecule (Q=dabcyl) at the 3′-end of the complementary strand. Each oligonucleotide was dissolved in distilled H2O to form stock solutions of 100 PM. Working solutions of 5 μM were prepared by diluting the stock solution with distilled H2O.
# The following buffers were used: 250 mM phosphate buffer pH 7.4 (consisting of sodium dihydrogen phosphate and sodium phosphate diluted in distilled H2O) and 5 M sodium chloride buffer. A11 buffers and distilled H2O were filtered through a […] filter prior to use.
# For the FRET experiments a stock solutions were prepared by dissolving compound (such as compound 13) in DMSO to give a concentration of 10 mM. From this stock solution, working solutions of the desired concentration were prepared by diluting the stock solution with distilled H2O.
# The reaction mixture was comprised of 4 μL of 250 mM phosphate buffer (final concentration of 50 mM), 4 μL flourophor and 4 μL quencher molecule of the appropriate oligonucleotide for a final concentration of 0.2 PM, 4 μL 5 M sodium chloride (final concentration of 1 M NaCl), and 4 μL of distilled H2O. This mixture was heated in an Eppendorf tube at 90° C. for 1 min and slowly cooled down to room temperature. This process was carried out to anneal the single strands to double-stranded DNA. Following this, 4 μL of the ligand was added in the desired concentration and the mixture incubated overnight either at room temperature or 4° C. A control sample of DNA only was prepared by mixing 4 μL 250 mM phosphate buffer (final concentration of 50 mM) with 4 μL fluorophore-labelled and 4 μL quencher-labelled oligonucleotides (of the appropriate sequence) to give a final concentration of 0.2 PM, 4 μL 5 M sodium chloride (final concentration of 1 M NaCl) and 4 μL distilled H2O. This mixture was analysed without prior annealing.
# Fluorescence melting profiles were measured using a Roche LightCycler using a total reaction volume of 20 μL. Initially, the samples were denatured by heating to 95° C. at a rate of 1° C. min^−1. The samples were then maintained at 95° C. for 5 min before annealing by cooling to 25° C. at 1° C. min^−1. The samples were then held at 25° C. for a further 5 min and finally melted by heating to 95° C. at 1° C. min^−1. Annealing steps and melting steps were all recorded and changes in fluorescence were measured at 520 nm.
# Tm values were obtained from the first derivates of the melting profiles using the Roche LightCycler software.
# SW48 cell line (gastric) = assay: MTT cytotoxicity assay, SW48; format: cell-based; conditions: Homo sapiens, SW48; MTT assay, 72 hour incubation; read-out: Cytotoxicity SW48 (72 hrs)
# Outline: (§1)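 Cells seeded at 1800/well in RPMI1640 + 10% FBS, adhered overnight, then exposed to compound 72 h at 37° C. Survival by MTT (500 μg/ml, 4 h), formazan in DMSO read at 540 nm, blank-corrected versus untreated wells; IC50 read from concentration–survival plot.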
# [2] = test system: LIM1215 cell line (gastric); assay: MTT cytotoxicity assay, LIM1215; format: cell-based; conditions: LIM1215; MTT assay, 72 hour incubation; read-out: Cytotoxicity LIM1215 (72 hours)
# Outline: as §1
Structure (SMILES),effect on melting temperature / DNA stabilisation [1],IC50 (SW48 cell line (gastric)),IC50 [2]
"COc1cc2c(cc1OCc1cccc(CC(=O)N3C[C@@H](CCl)c4c3cc(O)c3ccccc43)c1)N=C[C@@H]1CCCCN1C2=O [Compound 42, (S)-3-((3-(2-((S)-1-(Chloromethyl)-5-hydroxy-1,2-dihydro-3H-benzo[e]indol-3-yl)-2-oxoethyl)benzyl)oxy)-2-methoxy-7,8,9,10-tetrahydrobenzo[e]pyrido[1,2-a][1,4]diazepin-12(6aH)-one]",increases significantly,,
"COc1cc2c(cc1OCCCC(=O)N1C[C@@H](CCl)c3c1cc(O)c1ccccc31)N=C[C@@H]1CCCCN1C2=O [Compound 13, (S)-3-(4-((S)-1-(Chloromethyl)-5-hydroxy-1,2-dihydro-3H-benzo[e]indol-3-yl)-4-oxobutoxy)-2-methoxy-7,8,9,10-tetrahydrobenzo[e]-pyrido[1,2-a][1,4]diazepin-12(6aH)-one]",,0.28 nM,0.68 nM

# — US20240002379A1, “ASYMMETRIC CONJUGATE COMPOUNDS” (Pheon Therapeutics Ltd., priority 2016, published 2024)
